Source: paper PMC6214026, “PSMA-Oriented Target Delivery of Novel Anticancer Prodrugs: Design, Synthesis, and Biological Evaluations of Oligopeptide-Camptothecin Conjugates” (International Journal of Molecular Sciences, 2018)
In brackets after ≈: the same amount, converted by molar mass. Read-outs that look alike come from different tables or passages of the source.

Columns and labels:
LO2 cells = experiment: cells; type: cell-based; settings: MTT, 72 h, normal cells, read-out: IC50 LO2
Protocol: (§1) The cytotoxicities of PSMA-activated prodrug CPT-HT-J-ZLn and PSMA hydrolysate CPT-D-GLn were evaluated by MTT assays on PSMA-expressing (PSMA^+) cancer cell LNCaP-FGC, non-PSMA-expressing (PSMA^−) cancer cells HepG2, MCF-7, Hela, DU145, and PC-3, and normal cells MDCK, LO2, respectively, using CPT as a positive control.
(§2) The cytotoxicity of all the tested compounds was evaluated in vitro via the MTT method against PSMA-expressing LNCaP-FGC cells and non-PSMA-expressing cells HepG2, Hela, MCF-7, DU145, PC-3 cells using CPT as the positive control. Tumor cells growing in the logarithmic phase were seeded in 96-well plates at a density 3 × 10^3 cells/well and incubated overnight. The following day, cells were then treated with serial dilutions of the tested compounds for 72 h. At the end of this incubation, 20 µL of 5 mg/mL methylthiazol tetrazolium (MTT) was added to each well and incubation proceeded at 37 °C for another 4 h. After the supernatant medium was thrown away, 150 µL dimethylsulphoxide (DMSO) were added to each well and absorbance was measured at 490 nm using a plate reader (BIORAD 550 spectrophotometer, Bio-rad Life Science Development Ltd., Berkeley, CA, USA). Experiments were performed in triplicate and the values were the average of three (n = 3) independent experiments. The concentration of the compound that results in 50% growth inhibition corresponds to the IC50. Tumor cell growth inhibitory rate was calculated using Equation (1): % inhibition = (1 − Sample group OD/Control group OD) × 100%(1)

MDCK cells = experiment: cells; type: cell-based; settings: MTT, 72 h, normal cells, read-out: IC50 MDCK
Protocol: as §1, §2

[1] = Aqueous (equilibrium) solubility study in PBS; type: physicochemical; settings: pH = 7.4, 37 °C
Protocol: The equilibrium solubility of CPT and CPT-HT-J-ZL12 was determined in triplicate in PBS, according to the reference method with some modifications. An excess amount (~5 mg) of the tested compounds were placed into tubes, and 1 mL PBS was added to the tube. Then the tubes were incubated at 37 °C for 24 h in an ermostated oscillator (HZQ-QX, Harbin Donglian Instrument Co., Ltd., Harbin, China). After incubation, samples (0.1 mL) were removed and centrifuged at 10,000× g for 10 min with high speed centrifuge (Sorvall™ Legend™ Micro 21, Thermo Fisher Scientific, Waltham, MA, USA). […] of the supernatant was diluted, and the concentration was measured with HPLC according the method below. CPT and CPT-HT-J-ZL12 were measured by HPLC systems configured with a Waters 2695 separation module and a Waters 2695 ultraviolet (UV) detector with the following conditions: Xbridge C18 column (250 mm × 4.6 mm, […]); temperature, 25 °C; elution flow rate, 1.0 mL/min; detection wavelength, 365 nm. mobile phase, 0.2% […] in water (A) and 0.2% formic acid in acetonitrile (B) using a gradient elution of 10–60% B at 0–5.0 min, 60–80% B at 5.0–15.0 min, 80% B at 15.0–17.0 min, and 10% B at 17.1–23.0 min.

[2] = test system: MCF-7 cells (non-PSMA-expressing); experiment: cells; type: cell-based, human; settings: MTT, 72 h, mean ± SD, n = 3, read-out: IC50 MCF-7
Protocol: as §1
(§3) The human prostate cancer cell line (LNCaP-FGC), human prostate cancer cell line (PC-3), human prostate cancer cell line (DU-145), human breast cancer cell line (MCF-7), human hepatocellular carcinoma cell line (HepG2), human cervical cancer cell line (Hela), were obtained from the Chinese Academy of Medical Sciences and Peking Union Medical College. The cultures of the cells were maintained as a monolayer in RPMI 1640 or DMEM supplemented with 10% (v/v) heat inactivated fetal bovine serum and 1% (v/v) enicillin/streptomycin (Corning, New York, NY, USA) and incubated at 37 °C in a humidified atmosphere with 5% CO2. The tested compounds were dissolved in DMSO (Sigma, St. Louis, MO, USA) and added at required concentrations to the cell culture.
as §2

[3] = test system: HepG2 cells (non-PSMA-expressing); experiment: cells; type: cell-based, human; settings: MTT, 72 h, mean ± SD, n = 3, read-out: IC50 HepG2
Protocol: as §1, §3, §2

[4] = test system: DU145 cells (non-PSMA-expressing); experiment: cells; type: cell-based, human; settings: MTT, 72 h, mean ± SD, n = 3, read-out: IC50 DU145
Protocol: as §1, §3, §2

[5] = test system: PC-3 cells (non-PSMA-expressing); experiment: cells; type: cell-based, human; settings: MTT, 72 h, mean ± SD, n = 3, read-out: IC50 PC-3
Protocol: as §1, §3, §2

[6] = test system: LNCaP-FGC cells (PSMA-expressing); experiment: MTT cytotoxicity assay, LNCaP-FGC; type: cell-based, human; settings: MTT, 72 h, mean ± SD, n = 3, PSMA+, read-out: IC50 LNCaP-FGC
Protocol: as §1, §3, §2

[7] = test system: HeLa cells (non-PSMA-expressing); experiment: MTT cytotoxicity assay, HeLa; type: cell-based, human; settings: 72 h, mean ± SD, n = 3
Protocol: as §1
The tested compounds were dissolved in DMSO (Sigma, St. Louis, MO, USA) and added at required concentrations to the cell culture.
as §2, with “experiments.” for “experiments. The concentration of the compound that results in 50% growth inhibition corresponds to the IC50. Tumor cell growth inhibitory rate was calculated using Equation (1): % inhibition = (1 − Sample group OD/Control group OD) × 100%(1)”

Row | SMILES | IC50 (LO2 cells; Homo sapiens, L02) | IC50 (MDCK cells; Canis lupus familiaris, MDCK) | solubility at 24 h [1] | IC50 ([2]; Homo sapiens, MCF7) | IC50 ([3]; Homo sapiens, HepG2) | IC50 ([4]; Homo sapiens, DU-145) | IC50 ([5]; Homo sapiens, PC-3) | IC50 ([6]; Homo sapiens) | IC50 (LO2 cells) | IC50 (MDCK cells) | IC50 [7] | IC50 [2] | IC50 [3] | IC50 [4] | IC50 [5] | IC50 [6]
1 | CC[C@@]1(O)C(=O)OCc2c1cc1n(c2=O)Cc2cc3ccccc3nc2-1 [CPT, Camptothecin] | 0.04 ± 0.01 µM | 0.02 ± 0.01 µM | 3 µg/mL (≈ 8.61 µM) | 0.16 ± 0.1 µM | 5.43 ± 0.81 µM | 0.21 ± 0.09 µM | 0.13 ± 0.09 µM | 0.18 ± 0.17 µM | – | – | – | – | – | – | – | –
2 | CC[C@@]1(OC(=O)CCCCCNC(=O)[C@H](CCC(=O)N[C@@H](CCC(=O)N[C@@H](CCC(=O)N[C@@H](CC(=O)OC(C)(C)C)C(=O)N[C@@H](CCC(=O)OC(C)(C)C)C(=O)OC(C)(C)C)C(=O)OC(C)(C)C)C(=O)OC(C)(C)C)NC(=O)OC(C)(C)C)C(=O)OCc2c1cc1n(c2=O)Cc2cc3ccccc3nc2-1 [CPT-HT-J-L6, 1,11,16,3-tetra-tert-butyl 28-((S)-4-ethyl-3,14-dioxo-3,4,12,14-tetrahydro-1H-pyrano[3′,4′:6,7]indolizino[1,2-b]quinolin-4-yl) (3S,6S,11S,16S,21S)-6-(2-(tert-butoxy)-2-oxoethyl)-21-((tert-butoxycarbonyl)amino)-5,8,13,18,22-pentaoxo-4,7,12,17,23-pentaazaoctacosane-1,3,11,16,28-pentacarboxylate] | – | – | – | – | – | – | – | – | > 40 µM | > 40 µM | > 40 µM | > 40 µM | > 40 µM | > 40 µM | > 40 µM | > 40 µM
3 | CC[C@@]1(OC(=O)CCCCCCCCCCCNC(=O)[C@H](CCC(=O)N[C@@H](CCC(=O)N[C@@H](CCC(=O)N[C@@H](CC(=O)OC(C)(C)C)C(=O)N[C@@H](CCC(=O)OC(C)(C)C)C(=O)OC(C)(C)C)C(=O)OC(C)(C)C)C(=O)OC(C)(C)C)NC(=O)OC(C)(C)C)C(=O)OCc2c1cc1n(c2=O)Cc2cc3ccccc3nc2-1 [CPT-HT-J-L12, 1,11,16,3-tetra-tert-butyl 34-((S)-4-ethyl-3,14-dioxo-3,4,12,14-tetrahydro-1H-pyrano[3′,4′:6,7]indolizino[1,2-b]quinolin-4-yl) (3S,6S,11S,16S,21S)-6-(2-(tert-butoxy)-2-oxoethyl)-21-((tert-butoxycarbonyl)amino)-5,8,13,18,22-pentaoxo-4,7,12,17,23-pentaazatetratriacontane-1,3,11,16,34-pentacarboxylate] | – | – | – | – | – | – | – | – | > 40 µM | > 40 µM | > 40 µM | > 40 µM | > 40 µM | > 40 µM | > 40 µM | > 40 µM
4 | CC[C@@]1(OC(=O)CNC(=O)[C@@H](N)CCC(=O)N[C@@H](CCC(=O)N[C@@H](CCC(=O)N[C@@H](CC(=O)O)C(=O)N[C@@H](CCC(=O)O)C(=O)O)C(=O)O)C(=O)O)C(=O)OCc2c1cc1n(c2=O)Cc2cc3ccccc3nc2-1 [CPT-HT-J-ZL2, ((S)-4-((S)-4-((S)-4-amino-5-((2-(((S)-4-ethyl-3,14-dioxo-3,4,12,14-tetrahydro-1H-pyrano[3′,4′:6,7]indolizino[1,2-b]quinolin-4-yl)oxy)-2-oxoethyl)amino)-5-oxopentanamido)-4-carboxybutanamido)-4-carboxybutanoyl)-L-aspartyl-L-glutamic acid] | – | – | – | – | – | – | – | – | 1.68 ± 0.45 µM | 1.27 ± 0.3 µM | 3.54 ± 2.54 µM | 0.11 ± 0.08 µM | > 40 µM | 1.16 ± 0.28 µM | 1 ± 0.1 µM | 2.04 ± 0.3 µM
5 | CC[C@@]1(OC(=O)CCCNC(=O)[C@@H](N)CCC(=O)N[C@@H](CCC(=O)N[C@@H](CCC(=O)N[C@@H](CC(=O)O)C(=O)N[C@@H](CCC(=O)O)C(=O)O)C(=O)O)C(=O)O)C(=O)OCc2c1cc1n(c2=O)Cc2cc3ccccc3nc2-1 [CPT-HT-J-ZL4, (3S,6S,11S,16S,21S)-21-amino-6-(carboxymethyl)-27-(((S)-4-ethyl-3,14-dioxo-3,4,12,14-tetrahydro-1H-pyrano[3′,4′:6,7]indolizino[1,2-b]quinolin-4-yl)oxy)-5,8,13,18,22,27-hexaoxo-4,7,12,17,23-pentaazaheptacosane-1,3,11,16-tetracarboxylic acid] | – | – | – | – | – | – | – | – | > 40 µM | 9.13 ± 2.4 µM | > 40 µM | 0.32 ± 0.01 µM | > 40 µM | 9.73 ± 3.49 µM | 9.98 ± 2.38 µM | 1.18 ± 0.1 µM
6 | CC[C@@]1(OC(=O)CCCCCNC(=O)[C@@H](N)CCC(=O)N[C@@H](CCC(=O)N[C@@H](CCC(=O)N[C@@H](CC(=O)O)C(=O)N[C@@H](CCC(=O)O)C(=O)O)C(=O)O)C(=O)O)C(=O)OCc2c1cc1n(c2=O)Cc2cc3ccccc3nc2-1 [CPT-HT-J-ZL6, (3S,6S,11S,16S,21S)-21-amino-6-(carboxymethyl)-29-(((S)-4-ethyl-3,14-dioxo-3,4,12,14-tetrahydro-1H-pyrano[3′,4′:6,7]indolizino[1,2-b]quinolin-4-yl)oxy)-5,8,13,18,22,29-hexaoxo-4,7,12,17,23-pentaazanonacosane-1,3,11,16-tetracarboxylic acid] | – | – | – | – | – | – | – | – | > 40 µM | 19 ± 3.6 µM | > 40 µM | 7.03 ± 3.76 µM | > 40 µM | 26.3 ± 1.81 µM | 40 ± 3.37 µM | 3.13 ± 0.4 µM
